Measured values from paper PMC7217877, “N-AS-triggered SPMs are direct regulators of microglia in a model of Alzheimer’s disease” (Nature Communications, 2020).
Where a chain is given by its changes, count along the chain named. “And” between values parts separate entries of the source, which are not always exact repeats. Equal entries are not always repeated.

Legend:
Test in all cases: in vitro [14C] acetylation assay of purified COX2
Type in all cases: biochemical
Settings in all cases: replicates, listed as C14 N-AS
COX2 N181A = target: T1, COX2 N181A (Homo sapiens, UniProt P35354, N181A)
T1 construct: His (N); made in house
T1 sequence (P35354 18-604 N181A): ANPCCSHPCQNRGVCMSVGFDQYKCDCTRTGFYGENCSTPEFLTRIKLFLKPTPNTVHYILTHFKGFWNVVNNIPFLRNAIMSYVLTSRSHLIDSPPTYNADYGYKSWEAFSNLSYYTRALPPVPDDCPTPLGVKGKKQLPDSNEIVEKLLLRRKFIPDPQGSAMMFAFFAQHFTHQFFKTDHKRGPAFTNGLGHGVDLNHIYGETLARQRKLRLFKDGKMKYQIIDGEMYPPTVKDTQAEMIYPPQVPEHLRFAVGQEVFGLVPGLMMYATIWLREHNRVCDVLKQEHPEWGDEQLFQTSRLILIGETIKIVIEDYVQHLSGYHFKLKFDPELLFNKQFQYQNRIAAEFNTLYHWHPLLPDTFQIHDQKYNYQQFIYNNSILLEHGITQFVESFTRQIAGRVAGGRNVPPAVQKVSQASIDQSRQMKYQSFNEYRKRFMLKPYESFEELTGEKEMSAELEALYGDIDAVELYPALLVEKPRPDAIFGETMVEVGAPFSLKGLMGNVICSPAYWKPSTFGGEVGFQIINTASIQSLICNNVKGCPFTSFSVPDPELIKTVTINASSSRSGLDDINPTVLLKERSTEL
From the text: (§1) Single point mutations in SphK1 (R56A, R57A, R24A, R185A, D178A, and F192A) and COX2 (S565A, N181A, T564A, and S567A) were generated using the In-Fusion Cloning Kits (Clontech) and ORF cDNA expression plasmids of human SphK1 and COX2 gene (Sino Biological Inc, HG15679-NH and HG12036-NH), according to the manufacturer’s instructions. The forward and reverse primers described in Supplementary Table 4. The SphK1 WT, SphK1 mutants, COX2 WT, and COX2 mutant plasmids were transformed in the One shot TOP 10 competent cell (Invitrogen). The bacteria were grown in Luria-Bertani (LB, Invitrogen) plates supplemented with 50 μg ml^−1 kanamycin (Sigma-Aldrich) at 37 °C. The bacterial cell pellets were resuspended in lysis buffer containing 20 mM sodium phosphate (GE Healthcare), 500 mM NaCl (GE Healthcare), 20 mM imidazole (pH 7.4) (GE Healthcare), 0.2 mg ml^−1 lysozyme (Sigma-Aldrich), 20 μg ml^−1 DNase I (Roche), 1 mM MgCl2 (Sigma-Aldrich), and 1 mM PMSF (Sigma-Aldrich) before being lysed by sonication and clarified by centrifugation at 15,493×g for 10 min. Proteins were purified from the soluble fraction using His-Spin Trap columns (GE Healthcare) and the binding and acetylation assays were performed.
(§2) Acetylation assays were performed according to previously described procedures with minor modifications. […] To confirm the N-AS-mediated COX2 acetylation, 10 μg COX2 (WT or mutants) was used incubated with [^14C] N-AS (2 μCi, ARC UK Ltd, ARC-1024) at 37 °C for 2 h. [^14C] aspirin (2 μCi, ARC UK Ltd, ARC-0473) was conducted as the positive control. The reactions were terminated by placing the reaction tubes in ice for 5 min. To evaluate in vivo neuronal and microglial COX2 acetylation, 10 μCi [^14C] N-AS was orally administrated to 9-months-old WT and APP/PS1 mice. After 1 h, neuron and microglia were isolated and sonicated in culture media. […] Acetylated COX2 proteins bound to the beads were analyzed using a Tri-Carb 3110TR liquid scintillation counter (Perkin-Elmer).

COX2 S565A = target: T2, COX2 S565A (Homo sapiens, UniProt P35354, S565A)
T2 construct: His (N); made in house
T2 sequence (P35354 18-604 S565A): T1 sequence (P35354 18-604 N181A) with A164N, S548A
From the text: as §1, §2

COX2 S567A = target: T3, COX2 S567A (Homo sapiens, UniProt P35354, S567A)
T3 construct: His (N); made in house
T3 sequence (P35354 18-604 S567A): T1 sequence (P35354 18-604 N181A) with A164N, S550A
From the text: as §1, §2

## CCCCCCCCCCCCC/C=C/[C@@H](O)[C@H](CO)NC(C)=O [N-AS, N-((2S,3R,E)-1,3-Dihydroxyoctadec-4-en-2-yl)acetamide]
COX2 N181A
  C14 radioactivity of COX2, acetylation assay (Fig 1h): 141977 and 143404 and 142984 and 143554 and 143318 and 142968
COX2 S565A
  C14 radioactivity of COX2, acetylation assay (Fig 1h): 117550 and 118051 and 117876 and 111509 and 116124 and 117620
COX2 S567A
  C14 radioactivity of COX2, acetylation assay (Fig 1h): 185354 and 188203 and 187860 and 187573 and 187463 and 187847
